Experimental data published in paper PMC9738796, “Design of Conjugates Based on Sesquiterpene Lactones with Polyalkoxybenzenes by “Click” Chemistry to Create Potential Anticancer Agents” (Molecules, 2022).
Where two headings read alike, the source gives them in different places.

What was measured:
SH-SY5Y (neuroblastoma) = experiment: MTT cell viability, SH-SY5Y; assay type: cell-based; settings: Homo sapiens, 24 h
Excerpt: (§1) In this study we used human cell culture of tumor origin—SH-SY5Y (neuroblastoma), HeLa (cervical tumor), Hep-2 (larynx carcinoma), A549 (adenocarcinomic human alveolar basal epithelial cells); and normal cell line Hek 293 (human embryonic kidneys)), provided by the Laboratory of Tumor Cell Genetics of the Scientific Research Institute of Carcinogenesis, N.N. Blokhin National Medical Research Center of Oncology, as well as the Institute of Cytology of the Russian Academy of Sciences. While being grown for experiments, cells were cultured at 37 °C in a humidified CO2 atmosphere (5%) in a nutrient medium DMEM (PanEco, Moscow, Russia) and MEM (PanEco, Moscow, Russia), containing fetal bovine serum (10% by volume) (Thermo Fisher Scientific, Paisley, UK), Glutamax (2 mM) (Gibco, Renfrewshire, UK), and penicillin-streptomycin (1% by volume) (PanEco, Moscow, Russia).
(§2) Cell viability was determined by MTT test as described earlier. Cells were seeded in a 96-well plate in the amount of 1 × 10^4 cells/200 µL and cultured at 37 °C in a humidified CO2 atmosphere (5%) in a nutrient medium DMEM (PanEco, Moscow, Russia) and MEM (PanEco, Moscow, Russia). After 24 h of incubation, […] aliquots of test compounds ([…]) dissolved in DMSO were added to the cell cultures, and cells were cultured under the same conditions for 24 h. […] DMSO also was added to the control wells in a volume of 1%.
(§3) After 24 h, […] of MTT (3-(4,5-dimethylthiazol-2-yl)-2,5-diphenyltetrazolium bromide, 5 mg/mL) was added to each well and the plates were additionally incubated for 2 h.
(§4) Using a plate analyzer (Cytation3, BioTek Instruments Inc., Winooski, VT, USA), the optical density was determined at 530 nm. The concentration value causing 50% inhibition of cell population growth (IC50) was determined from dose-dependent curves.

HeLa (cervical tumor) [1] = experiment: MTT cell viability, HeLa; assay type: cell-based; settings: Homo sapiens, 24 h
Excerpt: as §1, §2, §3, §4

Hep-2 (larynx carcinoma) = experiment: MTT cell viability, Hep-2; assay type: cell-based; settings: Homo sapiens, 24 h
Excerpt: as §1, §2, §3, §4

[2] = system: A549 (adenocarcinomic human alveolar basal epithelial cells); experiment: MTT cell viability, A549; assay type: cell-based; settings: 24 h
Excerpt: as §1, §2, §3, §4

[3] = system: Hek 293 (human embryonic kidneys); experiment: MTT cell viability, normal Hek 293; assay type: cell-based; settings: HEK293, 24 h
Excerpt: as §1, §2, §3, §4

SH-SY5Y cells = experiment: Glycolysis flux assay (Seahorse ECAR); assay type: cell-based, human; settings: for glycolytic capacity (ECAR change relative to control): SH-SY5Y (Figure 3c); for decrease in ECAR: 100 µM, SH-SY5Y, kinetic curves (Figure 3d,e)
Protocol: The ability of compounds to suppress anaerobic glycolysis was studied using the Agilent Seahorse XF96e Analyzer (Seahorse Bioscience, Billerica, MA, USA) by the level of hydrogen proton production in the studied samples on cell lines of neuroblastoma SH-SY5Y [55].
The 30,000 SH-SY5Y cells per well were plated in an XF cell culture microplate (Seahorse Bioscience, Billerica, MA, USA). After plating cells, the microplate was kept overnight in a 37 °C, 5% CO2 incubator. On the following day the medium was aspirated, the cells washed and placed in serum-free, pyruvate-free and glucose-free medium (pH = 7.4). The microplate was kept for 45 min again in a 37° C, 5% CO2 incubator.
When SH-SY5Y cells were analyzed, we followed the procedure described in the Seahorse Glycolysis Stress Test kit. Briefly, initial extracellular acidification rate (ECAR) measurements were taken in the absence of glucose. […] This was followed by an injection of oligomycin from port C so that the final concentration of oligomycin in each well was […]. Lastly, a 25 mM final concentration of 2-deoxyglucose was injected from port D.
Data for each experimental condition derive from values obtained from a minimum of 5 separate wells.

[4] = system: all cell lines (SH-SY5Y, HeLa, Hep-2, A549, Hek 293); experiment: MTT cytotoxicity, summary over all cell lines; assay type: cell-based; settings: Homo sapiens; span over all cell lines
Excerpt: as §1
Cell viability was determined by MTT test as described earlier. Cells were seeded in a 96-well plate in the amount of 1 × 10^4 cells/200 µL and cultured at 37 °C in a humidified CO2 atmosphere (5%) in a nutrient medium DMEM (PanEco, Moscow, Russia) and MEM (PanEco, Moscow, Russia). […]
Using a plate analyzer (Cytation3, BioTek Instruments Inc., Winooski, VT, USA), the optical density was determined at 530 nm. […]

HeLa (cervical tumor) [5] = settings: HeLa column; cited from earlier work

SMILES | IC50 (SH-SY5Y (neuroblastoma)) [µM] | IC50 (HeLa (cervical tumor) [1]) [µM] | IC50 (Hep-2 (larynx carcinoma)) [µM] | IC50 [2] [µM] | IC50 [3] [µM] | glycolytic capacity (ECAR change relative to control) (SH-SY5Y cells; 100 μM) | decrease in ECAR (SH-SY5Y cells) | glycolysis (ECAR change relative to control) (SH-SY5Y cells; 100 μM, SH-SY5Y (Figure 3b)) | IC50 [4] [µM] | IC50 (HeLa (cervical tumor) [5]) [µM]
C=C1CCC2C(CNCCn3cc(COCc4ccc5c(c4)OCO5)nn3)C(=O)OC2C2C(=C)CCC12 [6a, (3R,3aS,9bS)-3-(((2-(4-((Benzo[d][1, 3]dioxol-5-ylmethoxy)methyl)-1H-1,2,3-triazol-1-yl)ethyl)amino)methyl)-6,9-dimethylenedecahydroazuleno [4,5-b]furan-2(9bH)-one] | 37.35 ± 0.28 | 62.4 ± 0.05 | 88.1 ± 2.66 | 85.65 ± 0.38 | 57 ± 1.24 | reaching a minimum | more than 50% | – | – | –
C=C1CC[C@H]2[C@H](CNCCn3cc(COCc4ccc(OC)cc4)nn3)C(=O)O[C@@H]2C2C(=C)CCC12 (stereo partly drawn) [6b, (3R,3aS,9bS)-3-(((2-(4-(((4-Methoxybenzyl)oxy)methyl)-1H-1,2,3-triazol-1-yl)ethyl)amino)methyl)-6,9-dimethylenedecahydroazuleno [4,5-b]furan-2(9bH)-one] | 36.3 ± 2.38 | 61.52 ± 0.12 | > 100 | > 100 | 56.4 ± 1.03 | – | – | – | – | –
C=C1CC[C@H]2[C@H](CNCCn3cc(COCc4cccc(OC)c4OC)nn3)C(=O)O[C@@H]2C2C(=C)CCC12 (stereo partly drawn) [6c, (3R,3aS,9bS)-3-(((2-(4-(((2,3-Dimethoxybenzyl)oxy)methyl)-1H-1,2,3-triazol-1-yl)ethyl)amino)methyl)-6,9-dimethylenedecahydroazuleno [4,5-b]furan-2(9bH)-one] | 94.9 ± 1.08 | 82.4 ± 1.14 | > 100 | > 100 | 59.8 ± 1.37 | – | – | – | – | –
C=C1CC[C@H]2[C@H](CNCCn3cc(COCc4ccc(OC)c(OC)c4)nn3)C(=O)O[C@@H]2C2C(=C)CCC12 (stereo partly drawn) [6d, (3R,3aS,9bS)-3-(((2-(4-(((3,4-Dimethoxybenzyl)oxy)methyl)-1H-1,2,3-triazol-1-yl)ethyl)amino)methyl)-6,9-dimethylenedecahydroazuleno [4,5-b]furan-2(9bH)-one] | 57.8 ± 1.71 | > 100 | > 100 | > 100 | 69.47 ± 0.54 | – | – | reaching a minimum | – | –
C[C@H]1CCC[C@]2(C)C[C@H]3OC(=O)C(CNCCn4cc(COCc5ccc6c(c5)OCO6)nn4)[C@H]3C=C12 (some centres unmarked) [7a] | 33.6 ± 1.27 | 39 ± 1.27 | 55.68 ± 0.52 | 29.3 ± 1.37 | 38.9 ± 1.23 | – | more than 50% | – | 29 to 55 | –
COc1ccc(COCc2cn(CCNC[C@H]3C(=O)O[C@@H]4C[C@@]5(C)CCC[C@H](C)C5=C[C@@H]43)nn2)cc1 [7b, (3S,3aR,5S,8aR,9aR)-3-(((2-(4-(((4-Methoxybenzyl)oxy)methyl)-1H-1,2,3-triazol-1-yl)ethyl)amino)methyl)-5,8a-dimethyl-3,3a,6,7,8,8a,9,9a-octahydronaphtho [2,3-b]furan-2(5H)-one] | 41.7 ± 1.73 | 55.1 ± 0.94 | 67.16 ± 0.14 | 47.3 ± 1.52 | 42.3 ± 1.09 | – | – | – | – | –
COc1cccc(COCc2cn(CCNC[C@H]3C(=O)O[C@@H]4C[C@@]5(C)CCC[C@H](C)C5=C[C@@H]43)nn2)c1OC [7c, (3S,3aR,5S,8aR,9aR)-3-(((2-(4-(((2,3-Dimethoxybenzyl)oxy)methyl)-1H-1,2,3-triazol-1-yl)ethyl)amino)methyl)-5,8a-dimethyl-3,3a,6,7,8,8a,9,9a-octahydronaphtho [2,3-b]furan-2(5H)-one] | 40 ± 1.32 | 46.6 ± 0.81 | 62.6 ± 0.72 | 53.11 ± 0.25 | 46.25 ± 0.22 | – | – | – | – | –
COc1ccc(COCc2cn(CCNC[C@H]3C(=O)O[C@@H]4C[C@@]5(C)CCC[C@H](C)C5=C[C@@H]43)nn2)cc1OC [7d, (3S,3aR,5S,8aR,9aR)-3-(((2-(4-(((3,4-Dimethoxybenzyl)oxy)methyl)-1H-1,2,3-triazol-1-yl)ethyl)amino)methyl)-5,8a-dimethyl-3,3a,6,7,8,8a,9,9a-octahydronaphtho [2,3-b]furan-2(5H)-one] | 45.2 ± 1.24 | 81 ± 3.17 | 91 ± 2.85 | 83.5 ± 1.09 | 35.39 ± 0.29 | – | – | – | – | –
C=C1C(=O)O[C@@H]2[C@H]3C(C)=CC[C@@]34O[C@@]4(C)CC[C@@H]12 [Arglabin, arglabin, reference compound] | 34 ± 2.48 | – | 29.9 ± 0.93 | – | 78 ± 2.05 | – | – | – | – | 20

Now from value to compound, other results behind:

IC50 (SH-SY5Y (neuroblastoma)) [µM] | IC50 (HeLa (cervical tumor) [1]) [µM] | IC50 (Hep-2 (larynx carcinoma)) [µM] | SMILES | IC50 [2] [µM] | IC50 [3] [µM] | glycolytic capacity (ECAR change relative to control) (SH-SY5Y cells; 100 μM) | decrease in ECAR (SH-SY5Y cells) | glycolysis (ECAR change relative to control) (SH-SY5Y cells; 100 μM, SH-SY5Y (Figure 3b)) | IC50 [4] [µM] | IC50 (HeLa (cervical tumor) [5]) [µM]
19.3 ± 0.57 | 18 ± 0.32 | > 100 | C=C1CC[C@H]2C(CNCc3cn(Cc4ccc5c(c4)OCO5)nn3)C(=O)O[C@@H]2C2C(=C)CCC12 (some centres unmarked) [10a] | > 100 | 58.04 ± 0.07 | – | more than 50% | – | – | –
16.1 ± 0.46 | 16.6 ± 0.59 | 26.3 ± 0.38 | C=C1CC[C@H]2C(CNCc3cn(Cc4ccc(OC)cc4)nn3)C(=O)O[C@@H]2C2C(=C)CCC12 (some centres unmarked) [10b] | 25.2 ± 3.44 | 56.65 ± 0.05 | – | – | – | – | –
89.5 ± 2.57 | 79.59 ± 0.33 | > 100 | C=C1CC[C@H]2C(CNCc3cn(Cc4cccc(OC)c4OC)nn3)C(=O)O[C@@H]2C2C(=C)CCC12 (some centres unmarked) [10c] | > 100 | 66.29 ± 0.08 | – | – | – | – | –
21.83 ± 0.02 | 26.4 ± 2.39 | 82.2 ± 1.15 | C=C1CC[C@H]2C(CNCc3cn(Cc4ccc(OC)c(OC)c4)nn3)C(=O)O[C@@H]2C2C(=C)CCC12 (some centres unmarked) [10d] | > 100 | > 100 | – | – | – | – | –
71.8 ± 2 | 88.86 ± 0.21 | > 100 | C[C@H]1CCC[C@]2(C)C[C@H]3OC(=O)C(CNCc4cn(Cc5ccc6c(c5)OCO6)nn4)[C@H]3C=C12 (some centres unmarked) [11a] | 95.9 ± 1.5 | 61.43 ± 0.1 | reaching a minimum | more than 50% | – | – | –
60.38 ± 0.39 | 72.79 ± 0.07 | > 100 | COc1ccc(Cn2cc(CNCC3C(=O)O[C@@H]4C[C@@]5(C)CCC[C@H](C)C5=C[C@H]34)nn2)cc1 (some centres unmarked) [11b] | 70.3 ± 1.17 | 49.55 ± 0.33 | – | – | – | – | –
> 100 | 88.2 ± 1.27 | > 100 | COc1cccc(Cn2cc(CNCC3C(=O)O[C@@H]4C[C@@]5(C)CCC[C@H](C)C5=C[C@H]34)nn2)c1OC (some centres unmarked) [11c] | > 100 | 67.91 ± 0.65 | – | – | – | – | –
56.1 ± 1.06 | 89.35 ± 0.4 | > 100 | COc1ccc(Cn2cc(CNCC3C(=O)O[C@@H]4C[C@@]5(C)CCC[C@H](C)C5=C[C@H]34)nn2)cc1OC (some centres unmarked) [11d] | 91.2 ± 1.54 | 59.6 ± 1.84 | – | – | – | – | –
